The source of these data is PMC6600292, “Potent Anti-Ovarian Cancer with Inhibitor Activities on Both Topoisomerase II and ^V600EBRAF of Synthesized Substituted Estrone Candidates” (Molecules, 2019).

A word on the IC50: it is the concentration needed to halve the response being measured. As a reminder, the melting point is the temperature, or range, at which the solid turns liquid.

Read-outs that look alike come from different tables or passages of the source.

One data set relates to SKOV-3 cells. Description: MTT cytotoxicity assay against SKOV-3 ovarian cancer cells. The format is cell-based. As to conditions: Homo sapiens, read-out: IC50, cytotoxicity against SKOV-3. The method, then: (§1) The cytotoxic activities of the synthesized derivatives against ovarian cancer cell lines (SKOV-3) were evaluated using standard MTT assay. SKOV-3 cells cultivated on DMEM medium supplemented with 10% FBS, […], 1% antibiotic/antimycotic solution and 3.6 g/L NaHCO3 were used. Cells were incubated under standard laboratory conditions. Before testing compounds, cells were trypsinized, centrifuged and prepared as per our developed protocol. MTT assay relies on the enzymatic conversion of the MTT substrate into purple formazan by living cells mitochondrial enzymes. Shortly, 96 well plates were seeded (10,000 cells/100 µL/well), then incubated for 24 h at standard conditions. Afterwards, cells were exposed to different concentrations from prepared compounds and incubated for another 24 h. Thereafter, MTT (10 µL, 5 mg/mL, PBS) were added to each well, and plates were incubated for 4 h. Supernatants were then replaced discarded with 200 µL of DMSO to dissolve the precipitated formazan crystals. Formazan absorbance, proportional to living cell number, was read at 550 nm using a microplate reader. Viability percentages were calculated and the corresponding IC50 values were obtained from the linear regression of the calibration curve. For comparison, doxorubicin (DOX) and resveratrol (RES) were used as positive controls. Furthermore, the effect of the newly synthesized derivatives was tested against normal fibroblast cell line to assess their toxicities.

Data set [1] concerns the target T1, V600EBRAF (mutant BRAF kinase) (Homo sapiens, UniProt P15056, V600E).
T1 construct: BRAF wild-type and V600E mutant kinase domains were expressed and purified; made in house; host or cells: Sf9 insect cells, baculovirus
Description: In vitro ELISA-based kinase assay, V600EBRAF. The format is biochemical. The settings on record: GST-MEK-His substrate. In general terms: ELISA stands for enzyme-linked immunosorbent assay.
Description: BRAF wild-type and V600E mutant kinase domains were expressed and purified according to Nakamura et al. [34]. Shortly, Sf 9 cells infected with BRAF kinase domain containing baculovirus were resuspended, sonicated, and then cleared using ultracentrifugation. Afterwards, the cleared lysate with mixed with equilibrated Talon resin, and the resin then washed with 10 column volumes of wash buffer and then eluted with buffer (25 mM Tris, pH 7.0, 250 mM NaCl, 160 mM imidazole, 10% glycerol). The eluant was then diluted, concentrated using Superdex 200 gel filtration column, purified as previously described and finally stored at –80 °C until use.
The previously prepared GST MEK-His protein was diluted in TTBS buffer (100 μL, 50 μg/mL), and then bound to 96-plate wells coated with glutathione (Pierce Biotechnology). Two DMSO-dilutions of each compound (1 µL) were added to 50 μL (50mM HEPES, pH7.0, 0.7 pmol of BRAF^V600E kinase). Tubes were incubated at ambient temperature for 1 h, then added to GST-MEK-His-plate wells. Afterwards, 50 μL of phosphorylation buffer were added to start kinase reaction (37 °C/30 min/shaking). Reaction was stopped, then substrate was added, and the signal was recorded. […]

A short description of the next data set: in vitro. The format is cell-based. How it is done: as §1
The next data set concerns the target topoisomerase II. Nature of the data set: Topoisomerase II relaxation assay. The format is biochemical. The settings on record: topoisomerase II purified from P388 cells, relaxation of pBR-322 DNA; read-out: IC50, topoisomerase II inhibition. The method, then: The inhibitory effects of the synthesized compounds against topoisomerase II were investigated using relaxation assay according to Goyeneche, et al.. Topoisomerase II was purified from P388 cells, where enzyme unit corresponds to the activity required complete relaxation of […] of supercoiled pBR-322 DNA at 30 °C for 1 h. The assay was performed as per protocol and samples were subjected to electrophoresis (0.7% agarose gels, TBE buffer. Ethidium bromide-stained DNA was examined under UV light.

[2] abbreviates: SK-OV-3, SKOV-3 cells, MTT, 24 h exposure.

T1 sequence (P15056 457-717 V600E limits assumed): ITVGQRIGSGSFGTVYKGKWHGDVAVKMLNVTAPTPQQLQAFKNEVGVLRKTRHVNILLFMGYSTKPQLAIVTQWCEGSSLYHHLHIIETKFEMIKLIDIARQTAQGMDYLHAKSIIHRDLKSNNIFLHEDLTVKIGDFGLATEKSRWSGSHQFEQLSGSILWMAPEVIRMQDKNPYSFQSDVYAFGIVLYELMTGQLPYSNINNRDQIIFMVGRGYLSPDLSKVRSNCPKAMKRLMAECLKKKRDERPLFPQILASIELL

Regarding `COCC1CC2C3CCc4cc(O)ccc4C3CCC2(C)C1NN` (stereo not drawn) [Compound 3a, 16-(α-Methoxy-methane)-17-hydrazino-estra-1(10),2,4-trien-[17,16-c]-3-ol], the melting point was 199 to 201 °C. Besides, the IC50 with SKOV-3 cells (SK-OV-3, 24 h) amounted to 0.00423 ± 0.00012 µM. 0.041 ± 0.0016 µM corresponded to half-maximal inhibition in data set [1] (IC50). In the data set “in vitro”, this compound yielded an IC50 at 24 h of 1.2 µM. Also, on topoisomerase II, the IC50 turned out to be 0.00345 ± 0.00013 µM.

The compound `COC(C)C1CC2C3CCc4cc(O)ccc4C3CCC2(C)C1NN` (stereo not drawn) [Compound 3b, 16-(α-Methoxy-ethane)-17-hydrazino-estra-1(10),2,4-trien[17,16-c]-3-ol] gave a melting point of 308 to 310 °C. In “in vitro”, the midpoint of inhibition, the IC50 at 24 h, lay at 2.45 µM.

In turn, `CCOCC1CC2C3CCc4cc(O)ccc4C3CCC2(C)C1NN` (stereo not drawn) [Compound 3c, 16-(α-Ethoxy-methane)-17-hydrazino-estra-1(10),2,4-trien-[17,16-c]-3-ol] returned a melting point of 219 to 221 °C. This compound also yielded an IC50 at 24 h in “in vitro” of 5.67 µM.

`CCOC(C)C1CC2C3CCc4cc(O)ccc4C3CCC2(C)C1NN` (stereo not drawn) [Compound 3d, 16-(α-Ethoxy-ethane)-17-hydrazino-estra-1(10),2,4-trien-[17,16-c]-3-ol] had a melting point of 223 to 225 °C. The compound also registered an IC50 at 24 h in the data set “in vitro” of 7.44 µM.

In turn, `CNNC1C(COC)CC2C3CCc4cc(O)ccc4C3CCC21C` (centres unmarked) [Compound 3e] displayed a melting point of 222 to 224 °C. Also, inhibition in “in vitro” was half-maximal at 8.11 µM (IC50 at 24 h).

`CNNC1C(C(C)OC)CC2C3CCc4cc(O)ccc4C3CCC21C` (stereo not drawn) [Compound 3f, 16-(α-Methoxy-ethane)-17-[N-methyl-hydrazino]-estra-1(10),2,4-trien-[17,16-c]-3-ol] gave a melting point of 310 to 312 °C. This compound also yielded an IC50 at 24 h in “in vitro” of 9.2 µM.

The compound `CCOCC1CC2C3CCc4cc(O)ccc4C3CCC2(C)C1NNC` (stereo not drawn) [Compound 3g, 16-(α-Ethoxy-methane)-17-[N-methyl-hydrazino]-estra-1(10),2,4-trien-[17,16-c]-3-ol] gave a melting point of 286 to 288 °C. For the same compound, the half-maximal inhibitory concentration (IC50) at 24 h in “in vitro” turned out to be 11.2 µM.

The compound `CCOC(C)C1CC2C3CCc4cc(O)ccc4C3CCC2(C)C1NNC` (stereo not drawn) [Compound 3h, 16-(α-Ethoxy-ethane)-17-[N-methyl-hydrazino]-estra-1(10),2,4-trien-[17,16-c]-3-ol] yielded a melting point of 280 to 282 °C. This compound came in with an IC50 at 24 h in the data set “in vitro” of 16.2 µM.

With `COCC1CC2C3CCc4cc(O)ccc4C3CCC2(C)C1NNc1ccccc1` (stereo not drawn) [Compound 3i, 16-(α-Methoxy-methane)-17-[N-phenyl-hydrazino]-estra-1(10),2,4-trien-[17,16-c]-3-ol], the melting point is 312 to 314 °C. For the same compound, in “in vitro”, half-maximal inhibition (IC50 at 24 h) required 15.1 µM.

In turn, `COC(C)C1CC2C3CCc4cc(O)ccc4C3CCC2(C)C1NNc1ccccc1` (stereo not drawn) [Compound 3j, 16-(α-Methoxy-ethane)-17-[N-phenyl-hydrazino]-estra-1(10),2,4-trien-[17,16-c]-3-ol] gave a melting point of 229 to 231 °C. The compound also returned a 50% inhibitory concentration (IC50) at 24 h in “in vitro” of 16.2 µM.

With `CCOCC1CC2C3CCc4cc(O)ccc4C3CCC2(C)C1NNc1ccccc1` (stereo not drawn) [Compound 3k, 16-(α-Ethoxy-methane)-17-[N-phenyl-hydrazino]-estra-1(10),2,4-trien-[17,16-c]-3-ol], the melting point lay in the range of 338 to 340 °C. Further, in the data set “in vitro”, the half-maximal inhibitory concentration (IC50) at 24 h turned out to be 17.8 µM.

As for `CCOC(C)C1CC2C3CCc4cc(O)ccc4C3CCC2(C)C1NNc1ccccc1` (stereo not drawn) [Compound 3l, 16-(α-Ethoxy-ethane)-17-[N-phenyl-hydrazino]-estra-1(10),2,4-trien-[17,16-c]-3-ol], the melting point lay in the range of 288 to 300 °C. Moreover, in the data set “in vitro”, inhibition was half-maximal at 20.2 µM (IC50 at 24 h).

Turning to `CN1CC2CC3C4CCc5cc(O)ccc5C4CCC3(C)C2=N1` (centres unmarked) [Compound 4a, 1`-Methyl-1`H-estra-1(10),2,4-trien-[17,16-c]pyrazoline-3-ol], the melting point is 117 to 119 °C. Moreover, in “in vitro”, the IC50 at 24 h was determined as 23.3 µM.

With `CC1C2CC3C4CCc5cc(O)ccc5C4CCC3(C)C2=NN1C` (centres unmarked) [Compound 4b, 1`-Methyl-1`H-5`-methyl-estra-1(10),2,4-trien-[17,16-c]pyrazoline-3-ol], the melting point lay in the range of 216 to 218 °C. In the data set “in vitro”, the IC50 at 24 h turned out to be 24.6 µM.

Consider `CC12CCC3c4ccc(O)cc4CCC3C1CC1CN(c3ccccc3)N=C12` (centres unmarked) [Compound 4c, 1`-Phenyl-1`H-estra-1(10),2,4-trien-[17,16-c]pyrazoline-3-ol], for which the melting point was in the range of 255 to 257 °C. Besides, the 50% inhibitory concentration (IC50) at 24 h in “in vitro” amounted to 25.6 µM.

For `CC1C2CC3C4CCc5cc(O)ccc5C4CCC3(C)C2=NN1c1ccccc1` (centres unmarked) [Compound 4d, 1`-Phenyl-1`H-5`-methyl-estra-1(10),2,4-trien-[17,16-c]pyrazoline-3-ol], the melting point is 214 to 216 °C. This compound also had a half-maximal inhibitory concentration (IC50) at 24 h in “in vitro” of 30.3 µM. The IC50 at topoisomerase II turned out to be 0.0436 ± 0.00098 µM.

For the compound `COc1cccc2c1C(=O)c1c(O)c3c(c(O)c1C2=O)C[C@@](O)(C(=O)CO)C[C@@H]3O[C@H]1C[C@H](N)[C@H](O)[C@H](C)O1` [doxorubicin], the IC50 in the data set with SKOV-3 cells (setting [2]) was 0.25 µM.

Turning to `Oc1ccc(/C=C/c2cc(O)cc(O)c2)cc1` [resveratrol], the IC50 in the data set on SKOV-3 cells (setting [2]) stood at 0.055 µM.
